Where “and” joins values, the source holds several entries; their conditions need not be identical. Equal values may be shown once.
How the values were obtained:
Type in all cases: in vivo, human
[1] = tested on: RNA transcripts in patient whole blood; assay: Affymetrix DNA array and TaqMan qRT-PCR of whole blood RNA of patients given Compound A; conditions: Affymetrix GeneChip
Protocol: TRI Reagent® BD—RNA, DNA, protein isolation reagent was used according to the manufacturer's protocol, Molecular Research Center, Inc. (Cincinnati, Ohio) <www.mrcgene.com>.
Images were scanned with a Hewlett-Packard GeneArray scanner.
To determine the fold change, the AD of the post-treatment sample was divided by the AD of the pre-dose samples.
All probes contained a reporter dye (FAM) and a dye quencher (MGB). QRT-PCR was performed using 20 ng of total RNA with TaqMan® One-Step RT-PCR Master Mix Reagents Kit (Applied Biosystems) following the manufacturer's protocol. […] VEGF (Genbank accession number AF022375) transcripts were amplified using forward primer […] (SEQ ID NO: 165), reverse primer […] (SEQ ID NO: 166), and probe […] (SEQ ID NO: 167) to generate an 82-bp amplicon product. Vinculin (Genbank accession number M33308) transcripts were amplified using forward primer […] (SEQ ID NO: 168), reverse primer […] (SEQ ID NO: 169), and probe […] (SEQ ID NO: 170) to generate a 124-bp amplicon product. PECAM-1 (Genbank accession number L34657) transcripts were amplified using forward primer […] (SEQ ID NO: 171), reverse primer […] (SEQ ID NO: 172), and probe […] (SEQ ID NO: 173) to generate a 56-bp amplicon product. MAPK Kinase 3 (Genbank accession number L36719) transcripts were amplified using forward primer […] (SEQ ID NO: 174), reverse primer […] (SEQ ID NO: 175), and probe […] (SEQ ID NO: 176) to generate a 77-bp amplicon product. Hemoglobin, epsilon 1 (Genbank accession number AI349593) transcripts were amplified using forward primer […] (SEQ ID NO: 177), reverse primer […] (SEQ ID NO: 178), and probe […] (SEQ ID NO: 179) to generate a 66-bp amplicon product. GAPDH and 18S were ordered as pre-developed assay reagents (PDARs) from Applied Biosystems and used as endogenous controls.
Where ΔΔCt=(Cttarget−Ctcontrol)post-dose−(Cttarget−Ctcontrol)pre-dose.

TIMP-1 = assay: ELISA of TIMP-1 in plasma of patients given Compound A; conditions: cancer patients; 24 hours after first dose vs before; dosed twice over 24 hours
Protocol: (§1) (Minneapolis, Minn.). Human plasminogen activator inhibitor-1 (PAI-1) and human tissue factor (TF) ELISA kits were obtained from American Diagnostica, Inc. (Greenwich, Conn.). All ELISAs were performed on plasma samples according to the manufacturers' instructions.

PAI-1 [2] = assay: ELISA of PAI-1 in plasma of patients given Compound A; conditions: cancer patients; 24 hours after first dose vs before; dosed twice over 24 hours
Protocol: as §1

VEGF = assay: ELISA of VEGF in plasma of patients given Compound A; conditions: cancer patients; 24 hours after first dose vs before; dosed twice over 24 hours
Protocol: as §1

PBMC = assay: Affymetrix microarray expression profiling of PBMC, Compound B Trial A; conditions: PBMC day 56 vs day 1
Protocol: Patient samples were derived from 2 randomized, open-label, multicenter Phase III clinical trials comparing standard of care chemotherapy alone or combined with Compound B in patients with metastatic colorectal cancer. In both trials Compound B was delivered twice weekly at a dose of 145 mg/m^2 via I.V. infusion. In the first trial (designated Trial A), the standard of care chemotherapy consisted of weekly administration of 5-FU and leucovorin (Rosewell Park regimen); in the second trial (designated Trial B), the standard of care chemotherapy consisted of weekly or bi-weekly administration of 5-FU, leucovorin and Irinotecan (CPT-11). A total of 23 patient sample pairs were included in Affymetrix microarray expression profiling analysis, 2 females and 9 males in the Compound B treatment arm, and 2 females and 10 males in the control arm. The median patient age was 66 and 65 years for the Compound B treatment arm and control arm, respectively. For RT-verification experiments, samples from 12 females and 24 males from the Compound B treatment arm, and 14 females and 17 males from the control arm were used. The median age for these patients was 62 and 60 years, respectively. Clinical response criteria were defined according to RECIST guidelines.
All blood samples were collected into Vacutainer tubes containing sodium heparin. Ten 10 ml of blood was withdrawn from patients prior to receiving any treatment on day 1 and also prior to dosing at end of cycle 1 (day 56 in Trial A; day 42 in Trial B). For peripheral blood mononuclear cell (PBMC) preparations, blood samples were shipped overnight at ambient temperature to a central processing facility (Quest Diagnostics, Inc., Collegeville, Pa., USA) for PBMC isolation via Ficoll gradient method. Purified PBMCs were shipped in RNA lysis buffer (Clontech, Palo Alto, Calif., USA) to SUGEN where isolation of total RNA was performed. For Trial B, whole peripheral blood samples were directly frozen at the clinical sites and shipped on dry ice to SUGEN for RNA isolation.
Total RNA was purified from PBMC samples using Clontech Nucleospin RNA II kit reagents (Clontech, Palo Alto, Calif.) and from whole blood samples using MRC TRI Reagent BD (Molecular Research Center, Cincinnati, Ohio, USA), an adaptation of the Chomczynski single step method, according to the manufacturer's instructions. All sample preparations included a treatment with RNAse-free DNAse. RNA yields were measured by UV absorbance and RNA quality was assessed by agarose gel electrophoresis with ethidium bromide staining for visualization of ribosomal RNA band integrity.
In these experiments, equal amounts of starting material were used for pre- and post-treatment samples from each donor (typically 2 μg). Briefly, the protocol was as follows: double-stranded cDNA was synthesized from total RNA (2 μg), with Invitrogen Life Technologies SuperScript Choice system reagents (Invitrogen, Carlsbad, Calif.). The T7-(dT)24 oligomer was used for priming first-strand cDNA synthesis. Double-stranded cDNA product was purified via phenol-chloroform extraction, then used as template in first round of in vitro transcription (IVT) of cRNA. […] The cRNA product was then purified with Qiagen spin column clean-up protocol and used as template in second round of cDNA synthesis. This second round of synthesis was similar to the first round except that random hexamers were used in priming of first-strand synthesis, with T7-(dT)24 oligomer priming the second-strand. Purification of the cDNA was as in the first round. The second round of IVT of cRNA was as in the first round but with biotinylated ribonucleotides rather than non-biotinylated ribonucleotides. Purified cRNA was quantitated, chemically fragmented according to Affymetrix protocol, and then hybridized overnight on Human Genome U95A Arrays (which contain probe sets for the detection of approximately 12,600 transcripts). […]

PAI-1 [3] = assay: PAI-1 plasma levels in Compound B trial patients; conditions: after 56 days of treatment
PBMC and whole blood RNA = assay: SYBR Green quantitative RT-PCR of PBMC / whole blood RNA, Compound B Trials A and B; conditions: end of one treatment cycle relative to baseline, two Phase III trials
Protocol: Primers were designed with Primer Express 1.5 software (Applied Biosystems). In all cases, primers were designed to bind within the sequence that was used in Affymetrix probe set designs (target sequence information available on Affymterix NetAffx website). Total RNA samples (1 μg) were reverse transcribed to yield first-strand cDNA using the Applied Biosystems Reverse Transcription Reagents protocol (Applied Biosystems, Foster City, Calif.). The reverse transcription reactions were then diluted 1:5 in distilled H2O. […] For individual reactions, 10 μl of each sample were combined with 15 μl of SYBR Green PCR Master Mix (Applied Biosystems) containing the appropriate primer pair at 350 nM. Data was extracted and amplification plots generated with ABI SDS software. […]
The relative expression data for a select subset of potential biomarkers were tested for differences between the Compound B (treatment) and the standard of care (control) arms. […] Results from three different cross-validations were evaluated to select the best set of predictable biomarkers: (1) jackknife method (dropping one case at a time); (2) randomly splitting the pooled data into two halves, prediction (for building model) and validation (for testing model); and (3) using the first trial as prediction and the later trial as validation sets, respectively. […]

MIG [4] = assay: MIG plasma ELISA, Compound 1 Phase I trials; conditions: individual patients
Protocol: (§2) In Trials A and B, patients received Compound 1.
(§3) Data analysis was performed for each marker.

I-TAC = I-TAC plasma ELISA, Compound 1 Phase I trials; conditions: individual patients
Protocol: as §2, §3

IP-10 = IP-10 plasma ELISA, Compound 1 Phase I trials; conditions: individual patients; >500 = above highest standard
Protocol: as §2, §3

MIG [5] = assay: MIG plasma ELISA, Compound 1 Phase I trials; conditions: Trial C patients, FIG. 17
VEGF/PLGF heterodimers = assay: Hybrid ELISA for VEGF/PLGF heterodimers in patient plasma; conditions: Trial C
Excerpt: Heterodimers of VEGF and PLGF have been reported in the scientific literature. To measure heterodimers, a hybrid ELISA assay was used, combining reagents from both the R&D Systems VEGF and PLGF ELISA kits (where VEGF antibodies are used in capture step and PLGF antibodies are used in detection step).

[6] = advanced solid malignancies, 24 hours after first dose vs before
[7] = patients with Increase call, Trial A, with 5-FU/leucovorin

In the case of `Cc1[nH]c(/C=C2\C(=O)Nc3ccccc32)c(C)c1CCC(=O)O` [Compound A, 3-[2,4-dimethyl-5-(2-oxo-1,2-dihydro-indol-3-ylidenemethyl)-1H-pyrrol-3-yl]-propionic acid], the “level of VEGF RNA in whole blood” value [1, 6] is reported as “increase”, the “level of vinculin RNA in whole blood” value [1, 6] is reported as “increase” and the “levels of 26 RNA transcripts in patient blood” value ([1]; day 28 vs day 0, dosed about 2 times per day) is reported as “increased and/or decreased”. For the same compound, the “level of TIMP-1 in plasma” value (TIMP-1) was “increased”, the “level of PAI-1 in plasma” value (PAI-1 [2]) was “increased” and the “level of VEGF in plasma” value (VEGF) was “increased”.

`Cc1cc(C)c(/C=C2\C(=O)Nc3ccccc32)[nH]1` [Compound B, 3-(3,5-dimethyl-1H-pyrrol-2-ylmethylene)-1,3-dihdyro-indol-2-one] was tested, and the “average fold change of lactoferrin transcript” value (PBMC; Compound B (SU5416) arm, highest of the 13 transcripts) was 33, the “average fold change of hypothetical protein FLJ13052 transcript” value (PBMC; Compound B (SU5416) arm, lowest of the 13 transcripts) was 2.6 and the “Increased in SU5416 arm: Antileukoprotease transcript” value (PBMC; [7]) was 9 of 11. The “Increased in SU5416 arm: BPI transcript” value (PBMC; [7]) was 9 of 11, the “Increased in SU5416 arm: CD24 antigen transcript” value (PBMC; [7]) was 9 of 11 and the “Increased in SU5416 arm: CEA CAM 8 transcript” value (PBMC; [7]) was 9 of 11. The “Increased in SU5416 arm: Defensin α 3 transcript” value (PBMC; [7]) was 10 of 11, the “Increased in SU5416 arm: Defensin α 4 transcript” value (PBMC; [7]) was 10 of 11 and the “Increased in SU5416 arm: Hypothetic. Protein FLJ13052 transcript” value (PBMC; [7]) was 7 of 11. The “Increased in SU5416 arm: Lactoferrin transcript” value (PBMC; [7]) was 11 of 11, the “Increased in SU5416 arm: Lipocalin 2 transcript” value (PBMC; [7]) was 10 of 11 and the “Increased in SU5416 arm: Liver arginase transcript” value (PBMC; [7]) was 9 of 11. The “Increased in SU5416 arm: MMP-9 transcript” value (PBMC; [7]) was 8 of 11, the “Increased in SU5416 arm: S100 P transcript” value (PBMC; [7]) was 9 of 11 and the “Increased in SU5416 arm: Thrombospondin 1 transcript” value (PBMC; [7]) was 9 of 11. For the same compound, the “number of the 13 genes showing induction in each case” value (PBMC; all cases of the Compound B arm) was “at least 6”, the “median PAI-1 plasma level, day 56” value (PAI-1 [3]; patients with MR (minor response) at end of cycle 1) was 23.93 ng/mL and the “median PAI-1 plasma level, day 56” value (PAI-1 [3]; patients with PD (progressive disease) at end of cycle 1) was 34.8 ng/mL. For the same compound, the “expression of CD24, lactoferrin, LCN2 and MMP-9 transcripts” value (PBMC and whole blood RNA) was “significantly induced”.

For `CCN(CC)CCNC(=O)c1c(C)[nH]c(C=C2C(=O)Nc3ccc(F)cc32)c1C.O=C(O)C[C@H](O)C(=O)O` [malate salt of Compound 1, L-malate salt of 5-(5-fluoro-2-oxo-1,2-dihydroindol-3-ylidenemethyl)-2,4-dimethyl-1H-pyrrole-3-carboxylic acid(2-diethylaminoethyl)amide], the “MIG plasma level, day 15” value (MIG [4]; cycle 1) was 339.16, the “MIG plasma level, end C1 dosing” value (MIG [4]; in pg/mL (unit assumed)) was 995.47 and 81.439 and 145.64 and 698.23 and 1066.2 and 344.93 and 907.09 and 314.2 and the “I-TAC plasma level, day 15” value (I-TAC; cycle 1) was 2020.2. The “I-TAC plasma level, end C1 dosing” value (I-TAC; in pg/mL (unit assumed)) was 771.04 and 701.46 and 315.69, the “IP-10 plasma level, end C1 dosing” value (IP-10) was >500 (4×) and 240.31 and 384.06 and the “chemokine MIG plasma level during treatment” value (MIG [5]) was “induced”. The “patients tested with increase in plasma levels of VEGF/PLGF heterodimer” value (VEGF/PLGF heterodimers) was 3 of 3.

— patent publication US20040018528A1, “Novel biomarkers of tyrosine kinase inhibitor exposure and activity in mammals” (Sugen, Inc., priority 2002, published 2004)
